{"source": "ChEMBL document CHEMBL6071183", "about": "“Neuroprotective Effect of 2-(Benzyloxy)arylureas Is Not Related to CypD Inhibition nor Suppression of mPTP Opening” (ACS Med Chem Lett, 2024)", "key": {"[1]": {"biological_target": "Peptidyl-prolyl cis-trans isomerase A (Homo sapiens, UniProt P62937)", "sequence (P62937 whole entry)": "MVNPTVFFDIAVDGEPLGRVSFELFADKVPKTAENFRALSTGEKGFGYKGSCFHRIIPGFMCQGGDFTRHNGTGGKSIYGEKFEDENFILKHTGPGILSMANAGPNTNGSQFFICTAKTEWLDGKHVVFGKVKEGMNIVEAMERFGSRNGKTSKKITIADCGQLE"}}, "note": "pIC50: −log10 of the molar value."}
{"smiles": "O=C(Nc1ccc([N+](=O)[O-])cc1)Nc1ncccc1OCc1ccccc1", "values": [{"measurement": "pIC50", "setting": "[1]", "result": 5.00}, {"measurement": "solubility", "setting": "physchem", "result": 20, "unit": "µM"}]}
